{"source": "patent US8889411B2", "about": "“Modulation of stem and progenitor cell differentiation, assays, and uses thereof” (Anthrogenesis Corporation, priority 2002, dated 2014)", "key": {"[1]": {"system": "cells derived from CD34+ progenitor cells", "test": "Phagocytosis: FITC-dextran uptake (mannose receptor-mediated endocytosis)", "type": "cell-based, human", "conditions": "compared to DMSO control", "experimental": "Phagocytosis: The endocytic activity of the cells was analyzed by measuring FITC-dextran uptake. Cells were incubated with 1 mg/ml dextran-FITC (Sigma) in complete medium at 37° C. for 1 hour and 4° C. for 1 hour as a negative control. Results presented are representative of two independent experiments."}, "[2]": {"system": "human cord blood CD45+ cells", "test": "Flow cytograms of cord blood CD45+ cells cultured 14 days with IL3, IL6, G-CSF, Epo and KL", "type": "cell-based", "conditions": "5 μg/ml", "experimental": "FIGS. 9(A-F). Flow cytograms. […] Cord blood CD45+ cells were cultured for 14 days with cytokines IL3, IL6, G-CSF, Epo and KL. Percentages indicated on each cytogram indicate the percentage of the cell population expressing a particular combination of markers. A. Control, immunoglobulin (Ig). B. Control, no compound added. C. DMSO (5 μg/ml). D. Thal (5 μg/ml). E. ACTIMID™ (5 μg/ml). F. REVIMID™ (5 μg/ml). X-axis: relative intensity of CD38 (FL1-H) staining. Y-axis: relative intensity of CD19 (FL2-H) staining. See Section 6.3 for details.\nFIGS. 10(A-F). Flow cytograms. […] Cord blood CD45+ cells were cultured for 14 days with cytokines IL3, IL6, G-CSF, Epo and KL. Percentages indicated on each cytogram indicate the percentage of the cell population expressing a particular combination of markers. A. Control, immunoglobulin (Ig). B. Control, no compound added. C. DMSO (5 μg/ml). D. Thal (5 μg/ml). E. ACTIMID™ (5 μg/ml). F. REVIMID™ (5 μg/ml). X-axis: relative intensity of CXCR5 (FL1-H) staining. Y-axis: relative intensity of CD34 (FL2-H) staining. See Section 6.3 for details."}}}
{"smiles": "Nc1cccc2c1C(=O)N(C1CCC(=O)NC1=O)C2=O", "note": "(stereo not shown) [ACTIMID™, 4-(Amino)-2-(2,6-dioxo(3-piperidyl))-isoindoline-1,3-dione]", "values": [{"measurement": "phagocytic capacity at day 12", "setting": "[1]; compound from day 1 to day 12", "result": "strong decrease"}, {"measurement": "phagocytic capacity at day 12", "setting": "[1]; compound from day 6 to day 12", "result": "comparable"}, {"measurement": "differentiation into B cells (CD19/CD38 staining)", "setting": "[2]; FIG. 9", "result": "minor suppressive effects"}, {"measurement": "repression of CXCR5 produced by exposure to DMSO", "setting": "[2]; FIG. 10", "result": "overcomes the repression"}]}
